Experimental data published in US6841236B2, “Articles containing thioxanthone dyes” (3M Innovative Properties Co., priority 2001, dated 2005).

Key:
Type in all cases: physicochemical
[1] = Dye concentration in saturated acetone solution at room temperature; conditions: 72 hours at RT, 0.45 micron PTFE filtered, absorbance at 535 nm
Description: Examples 4-7 were prepared by placing 60-100 mg of each of the compounds of Examples 1-3 and 6-methoxy-14H-anthra(2,1,9-mna)thioxanthene-14-one (described by Carlini et al.) in a vial with 5.0 ml acetone. […] Each vial was hand shaken and the solution was filtered using a 0.45 micron polytetrafluoroethylene (PTFE) filter commercially available from VWR Scientific Products, West Chester, Pa. under the trade designation “Acrodisc 13CR PTFE”.
The amount of fluorescent dye in the saturated acetone solution was determined by measuring the major dye absorption band at 535 nm using a UV-Vis Spectrophotometer commercially available from Shimadzu Scientific Instruments, Inc., Columbia, Md. under the trade designation “Shimadzu model UV-2401PC”. Dye concentrations were calculated by measuring the absorbance of the saturated acetone solution, and then diluting that solution until absorbance of the resulting solution was below 3. The dyes were assumed to have equal absorbance per mole. Using the dilution and an absorbance coefficient of 16,100 A/mol/L (coefficient obtained in acetone for the dye of Example 3) and assuming a Beer's Law relationship, the concentration of dye in each saturated solution was calculated and is set out in TABLE I

[2] = Daytime color of copolyester film with dye laminated to retroreflective sheeting; conditions: dye 0.2 wt.-% in copolyester resin, 0.1 mm film on Scotchlite 3970
Description: (§1) The daytime color of each article was measured using a Labsphere BFC-450 Bispectral Colorimeter commercially available from Labsphere, North Sutton, N.H. The daytime chromaticity (x,y), total luminance factor (YT), and fluorescence luminance factor (YF; which is a measure of the fluorescent properties of the article) calculated for the CIE D65 and the CIE 1931 observer are provided in TABLE II
Examples 17-18 were prepared as described in Examples 8-10, except that the dyes of Examples 1 and 2 at a 0.2 wt.-% loading were independently incorporated into a copolyester resin. The copolyester resin was prepared using terephthalic and isophthalic acid in an 80/20 ratio and ethylene glycol in the conventional manner and analogous to the production of polyethylene terephthalate according to the method described in Macromolecular Syntheses, A Periodic Publication of Methods for the Preparation of Macromolecules, Collective Volume I, 1977, J. A. Moore, Editor, (John Wiley & Sons, New York; 1978);p. 17-21. The extrusion conditions for the copolyester were 254-260° C. using a single screw extruder and the resultant film thickness was 0.1 mm.
The resultant films were laminated to Scotchlite 3970 reflective sheeting on aluminum panels as described in Examples 8-10. Color values were measured as described in Examples 8-10 and the results set out in TABLE IV.

[3] = Daytime color of Paraloid B66 dye coating on retroreflective sheeting
Description: as §1
Examples 19-21 were prepared by independently stirring 0.10 parts of the dyes of Examples 1 and 3 and 6-methoxy-14H-anthra(2,1,9-mna)thioxanthene-14-one in a clear vehicle solution of 64.8 parts Dowanol DPMA and 38.2 parts Paraloid B66.
The fluorescent dye solutions were coated on Scotchlite 3970 reflective sheeting using a #16 wire wound bar. The coating was air dried for 5 minutes and then dried in a 120° C. oven for 45 minutes. Color values were measured as described in Examples 8-10 and the results set out in TABLE V.

[4] = Daytime color of vinyl film with dye laminated to retroreflective sheeting; conditions: 0.18 g dye in 65 g GEON 178 / Elvacite 2013 mixture, 0.04 mm vinyl film on Scotchlite 3970
Description: as §1
Examples 22-23 were prepared by independently stirring 0.18 g of the dye of Examples 1 and 3 into 65 g of a mixture composed of 42 wt.-% DIBK, xylol, and mineral spirit (1.7:2.3:1), 44 wt.-% of a polyvinyl chloride dispersion commercially available from PolyOne, Cleveland, Ohio under the trade designation “GEON 178” and 14 wt.-% of a polyacrylate commercially available from Ineos Acrylics Inc., Cordova, Tenn. under the trade designation “Elvacite 2013”. Each mixture was allowed to stand at room temperature for one hour prior to knife coating onto a pre-sized paper substrate. Each coated substrate was placed in a 150° F. (66° C.) oven for 1.5 minutes, followed by a 300° F. (149° C.) oven for 1.0 minute and a 400° F. (204° C.) oven for 0.75 minute, resulting in a 0.04 mm thick fluorescent colored vinyl film.
The resultant films were laminated to Scotchlite 3970 reflective sheeting on aluminum panels as described in Examples 8-10. Color values were measured as described in Examples 8-10 and the results set out in TABLE VI.

[5] = Daytime color of polyurethane film with dye laminated to retroreflective sheeting; conditions: dye 0.2 wt.-% in aliphatic polyester polyurethane PN03.214, 0.1 mm film on Scotchlite 3970
Description: as §1
Examples 24-27 were prepared as described in Examples 8-10, except that the dyes of Examples 1, 3, 6-(2-hydroxy-ethoxy)-14H-anthra(2,1,9-mna)thioxanthene-14-one (described by Carlini et al.) and 6-methoxy-14H-anthra(2,1,9-mna)thioxanthene-14-one were independently used at 0.2 wt.-% loading in an aliphatic polyester polyurethane resin commercially available from Huntsman Polyurethanes, West Deptford, N.J., USA under the trade designation “PN03.214”. The extrusion conditions for the polyurethane were 154-191° C. and the resultant film thickness was 0.1 mm.
The resultant films were laminated to Scotchlite 3970 reflective sheeting on aluminum panels as described in Examples 8-10. Color values were measured as described in Examples 8-10 and the results set out in TABLE VII.

[6] = 0.10 parts dye in 64.8 parts Dowanol DPMA and 38.2 parts Paraloid B66, coated on Scotchlite 3970 with #16 wire wound bar, dried

Q: Which results are given for CCCCCCCCOc1cc2c3ccccc3c(=O)c3ccc4c5ccccc5sc1c4c32 [Example 1, 6-n-Octyloxy-14H-anthra(2,1,9mna)thioxanthene-14-one]?
A: Dye Concentration in Acetone at RT [1]: 0.19 mg/mL; YF (fluorescence luminance factor) [2]: 11.70; YT (total luminance factor) [2]: 22.83; x (daytime chromaticity) [2]: 0.5429; y (daytime chromaticity) [2]: 0.3056; YF (fluorescence luminance factor) [3, 6]: 11.09; YT (total luminance factor) [3, 6]: 30.10; x (daytime chromaticity) [3, 6]: 0.4381; y (daytime chromaticity) [3, 6]: 0.2980; appearance of coated article ([3]; dye in Paraloid B66 coating on Scotchlite 3970): bright fluorescent pink appearance; Y (daytime chromaticity) [4]: 0.2762; YF (fluorescence luminance factor) [4]: 12.31; YT (total luminance factor) [4]: 23.82; x (daytime chromaticity) [4]: 0.5149; X (daytime chromaticity) [5]: 0.5739; YF (fluorescence luminance factor) [5]: 11.83; YT (total luminance factor) [5]: 17.46; y (daytime chromaticity) [5]: 0.2692
